Experimental data from patent US20040014772A1, “Compositions and methods for treating glomerular disorders” (priority 2000, published 2004).
Entries after “also recorded” stand apart in the source; their conditions may differ.

Assays:
[1] = Weight loss/gain of rats before and after treatments (PAN-induced nephrotic syndrome); format: in vivo, rat; settings: for Body weight After Treatment (day7): rats, day 7, PAN 7.5 mg/100 g BW iv, CM 120 mg/kg ip twice a day, PB 400 mg/kg ip every other day, means ± SE
Method: (§1) Two different general CYP inhibitors were used, cimetidine (CM) and piperonyl butoxide (PB). Cimetidine has imidazole and cyano groups that inhibit CYP by interacting with the heme moiety. […] To determine the effect of the CYP inhibitors in PAN- induced nephrotic syndrome, CM (120 mg/kg BW) was administered intraperitoneal 1 h prior to PAN injection and then twice a day. Piperonyl butoxide (PB) which yields a metabolite that binds to the heme moiety of CYP, was given intraperitoneal (400 mg/kg BW) 4h before PAN injection and then every other day.
Also, the CYP2B1 inhibitor piperine (PIP), a methylenedioxyphenyl compound found in black and red pepper was used. PIP is believed to inhibit CYP2B1 by forming an inhibitory complex therewith. PIP was administered at a dose of 85 mg/kg of body weight (BW) by an intraperitoneal injection 16 hours prior to PAN injection and then once a day.

[2] = tested on: PAN-induced nephrotic syndrome; assay: PAN-induced nephrotic syndrome: proteinuria and serum albumin; format: in vivo, rat; settings: PAN-treated rats; for proteinuria: daily urine protein to day 7; for serum albumin: day 7
Method: (§2) Male Sprague-Dawley rats weighing 200-250 g were injected either saline or a single intravenous injection of PAN (Sigma, St. Louis) in a dose of 7.5 mg/100g BW (day 0) as described in Ueda et al, 19996, Kidney Intl. 49:370-373. Animals were housed in separate metabolic cages and allowed free access to rat chow (Purina). Daily urine protein excretion was determined and animals were sacrificed on day 7. Blood was obtained for the measurement of serum albumin and the evaluation of renal function as measured by blood urea nitrogen (BUN) and plasma creatinine. Cell fraction of the glomeruli was prepared for bleomycin detectable iron assay. The microsome fraction was utilized for the measurement of CYP content.
as §1
PIP is believed to inhibit CYP2B1 by forming an inhibitory complex therewith. PIP was administered at a dose of 85 mg/kg of body weight (BW) by an intraperitoneal injection 16 hours prior to PAN injection and then once a day.

cytochrome P450 = assay: Cytochrome P450 content of microsome fraction (CO difference spectrum); settings: for CYP content in kidney / glomeruli: PAN-treated rats, day 7
Method: as §2

CYP2B1 [3] = assay: CYP2B1 content in glomeruli (immunohistochemistry, western blot); format: in vivo, rat; settings: PAN-treated rats, 6 hours to day 7
Text: The microsome fraction obtained was subjected to SDS-page electrophoresis in 1 mm slab gels. The separated forms were transferred from gel to a nitrocellulose sheet using a Mini Trans-blot electroblotting unit. The primary antibodies were monoclonal anti-HO-1 (OSA-111, StressGen, Victoria, BC, Canada) and monoclonal anti-CYP2B1 (PM25, Oxford Biomedical Research, Oxford, Mich., USA). Subsequent to primary and secondary antibody (peroxidase-labeled) treatment, the blots were visualized by enhanced chemiluminescence method. Kidney cortical sections were fixed in 10% buffered formalin for 6 hours and embedded in paraffin. After deparaffinization and antigen retrieval, the sections were immunolabeled and visualized according to an avidin-biotin complex (ABC) method. The primary antibody for detection of ferritin was polyclonal anti-Ferritin (L subunit) antibody (605022; Boehringer Mannheim Corp., Indianapolis, Ind., USA).

[4] = tested on: glomerular epithelial cells GEC; assay: PAN induced hydroxyl radical formation in GEC (deoxyribose degradation); format: cell-based, rat; settings: PAN 1.5 mM 1 h; preincubation CM 2 mM, PB 25 μM, RN 1 mM, PIP 0.2 mM, pyruvate 10 mM
Method: 2-deoxy-D-ribose in a final concentration of 3 mM was added to the medium just prior to the incubation. At the end of the incubation, the incubation medium was collected for the measurement of hydroxyl radical formation by deoxyribose degradation method as in Baliga et al (Kidney Intl. 1996, 50:1118-1124.).
Confluent GEC monolayer was washed twice with HBSS and then incubated with 1.5 mM PAN in HBSS for a period of time before substantial cell killing occurs (1 h) at 37° C. 2-deoxy-D-ribose in a final concentration of 3 mM was added to the medium just prior to the incubation. At the end of the incubation, the incubation medium was collected for the measurement of hydroxyl radical formation by deoxyribose degradation method described in Baliga et al, 1996, Kidney Int. 50:1118-1124. To determine the effect of CYP inhibitors on the hydroxyl radical formation, GEC monolayers were preincubated with CM, RN or PB as mentioned above.

[5] = tested on: glomerular epithelial cells GEC; assay: Intracellular H2O2 generation in GEC (DCF fluorescence); format: cell-based, rat; settings: PAN 1.5 mM; CM, PIP, RN or pyruvate 10 mM
Method: The principle of this method is that the oxidation of 2′,7′-dichlorofluorescin-diacetate (DCFH-DA) in the presence of H2O2 produces the highly fluorescent compound 2′,7′-dichlorofluroescin (DCF) which can be measured by fluorometer. The intracellular generation of H2O2 in GEC was tested utilizing the microplate assay procedure described by Rosenkranz et al (J. Immunol. Methods, 1992, 156:39-45.). In brief, confluent GEC were harvested by trypsin and suspended in HBSS. After an equilibration period at 37° C. with constant shaking, they were transferred to a microplate (2×10^5-1×10^6 cells/well) and then incubated at 37° C. with equal volumes of DCFH-DA (10 μl/ml) and PAN (1.5 mM) for the planned time period. At the end of the incubation, the fluorescent intensity of the cell suspension was read using a fluorescence spectrophotometer (wavelength 485/535 nm) capable of reading microtiter plates.

CYP2B1 [6] = assay: CYP2B1 content in GEC exposed to PAN (western blot); format: cell-based, rat; settings: PAN 1.5 mM for 2 hr at 37° C.; CM 2 mM, PIP 0.2 mM, pyruvate 10 mM
Text: (§3) The microsome fraction obtained was subjected to SDS-page electrophoresis in 1 mm slab gels. The separated forms were transferred from gel to a nitrocellulose sheet using a Mini Trans-blot electroblotting unit. The primary antibodies were monoclonal anti-HO-1 (OSA-111, StressGen, Victoria, BC, Canada) and monoclonal anti-CYP2B1 (PM25, Oxford Biomedical Research, Oxford, Mich., USA). Subsequent to primary and secondary antibody (peroxidase-labeled) treatment, the blots were visualized by enhanced chemiluminescence method.

HO-1 = HO-1 induction in GEC exposed to PAN (western blot); format: cell-based, rat; settings: PIP 0.2 mM, CM 2 mM, pyruvate 10 mM
Text: as §3

Structure (SMILES) | Body weight After Treatment (day7) [1] [g] | proteinuria [2] | proteinuria ([2]; listed as C<) | serum albumin [2] | CYP content in kidney / glomeruli (cytochrome P450) | CYP2B1 content in the glomeruli (CYP2B1 [3]) | hydroxyl radical formation in GEC [4] | intracellular H2O2 generation in GEC [5] | CYP2B1 content in GEC (CYP2B1 [6]) | HO-1 induction in GEC (HO-1) | ascites and weight gain at the time of sacrifice ([1]; compared to control animals and those treated with CYP inhibitors) | CYP content in the liver (cytochrome P450; PAN treated vs untreated rats)
CN/C(=N/CCSCc1nc[nH]c1C)NC#N [CM, cimetidine] | 253 ± 9 | substantial protection | significant protection | prevented | significantly preserve | preserved | markedly reduce; also recorded: significantly reduced | significantly decreased | preserved | significantly prevented the induction | – | –
CN(C)c1ncnc2c1ncn2[C@@H]1O[C@H](CO)[C@@H](N)[C@H]1O [PAN, puromycin aminonucleoside] | 291 ± 8 | significant proteinuria on the fourth day; also recorded: nephrotic range proteinuria | – | markedly decreased; also recorded: significant decrease | not detectable | marked decrease | significant increase; also recorded: significant production | marked increase | significant reduction | marked induction | developed ascites and significant weight gain | no difference
